The text below walks through data of ChEMBL document CHEMBL1201862, “PubChem BioAssay data set” (2004).

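Protocol summary: plate cells (96-well), add compound at 5 concentrations, incubate 48 h, interpolate endpoints linearly. GI50: concentration for 50% inhibition of growth.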 Activity calls are given as the source filed them. No stated cut-off is given here; in the data, active = GI50 up to about 1.1 µM and inactive = higher.

Test systems include OVCAR-8; HCT-15; ACHN; EKVX; U-251; UACC-62; OVCAR-5; HCT-116; HCC 2998; SNB-19; CAKI-1; NCI-H23; HL-60; MOLT-4; Malme-3M; RXF 393; SR; HOP-92.
What all share (assay): growth of human tumour cells (NCI), 48 h

As to `C/C(CN1C(=O)c2ccccc2C1=O)=N\NS(C)(=O)=O`, the GI50 in the assay with OVCAR-8 was > 100 µM (inactive); in the assay with HCT-15 it was above 100 µM; with ACHN it was > 100 µM (inactive); with EKVX, > 100 µM (inactive); with U-251, > 100 µM (inactive); in the assay with UACC-62 it was > 100 µM (inactive). Further, the GI50 with OVCAR-5, in the assay with HCT-116, with HCC 2998, in the assay on SNB-19, in the assay on CAKI-1 and in the assay with NCI-H23 was > 100 µM (inactive) throughout. Moreover, the GI50 with HL-60, in the assay with MOLT-4, with Malme-3M and in the assay on RXF 393 was > 100 µM (inactive) in each case.

As to `C[N+](C)=c1nc(N2CCc3ccccc3C2)ss1.[O-][Cl+3]([O-])([O-])[O-]`, the GI50 in the assay on OVCAR-8 is > 100 µM (inactive); in the assay with HCT-15, 98.2 µM; in the assay on SR, 54.5 µM (inactive); in the assay with ACHN, > 100 µM (inactive); in the assay with U-251 it was > 100 µM (inactive); with UACC-62, > 100 µM (inactive). For the same molecule, the GI50 in the assay with HCT-116 is 81.3 µM (inactive); in the assay on HCC 2998, > 100 µM (inactive); with SNB-19 it was > 100 µM (inactive); in the assay with CAKI-1, > 100 µM (inactive); with HL-60 it was 34.2 µM (inactive); with MOLT-4 it was 30.7 µM (inactive). The GI50 with Malme-3M is > 100 µM (inactive); with RXF 393 it was 77.4 µM (inactive).

On to `O=C(Cc1ccccc1)NN1C(=O)C(Cl)C1c1ccc(O)cc1` (stereo unspecified), for which the GI50 in the assay with OVCAR-8 is > 100 µM (inactive); in the assay on HCT-15, above 100 µM; in the assay with SR, 43.1 µM (inactive); in the assay with ACHN it was > 100 µM (inactive); in the assay with EKVX it was > 100 µM (inactive); with U-251 it was > 100 µM (inactive). For the same molecule, the GI50 in the assay with UACC-62, in the assay on OVCAR-5, in the assay with HCT-116, in the assay on HCC 2998, in the assay on SNB-19 and in the assay on CAKI-1 was > 100 µM (inactive) throughout. The GI50 in the assay with NCI-H23 is > 100 µM (inactive); with HL-60, 62.7 µM (inactive); in the assay on MOLT-4, > 100 µM (inactive); in the assay on Malme-3M it was > 100 µM (inactive); with RXF 393, > 100 µM (inactive).

Take `COC1=CC(=O)C2C(C1=O)C(c1ccc(Cl)cc1)[C@@H]2C` (stereo partly specified): the GI50 was 20.6 µM (inactive) in the assay on OVCAR-8; 17.1 µM with HCT-15; 17.3 µM (inactive) with ACHN; 26.3 µM (inactive) in the assay with EKVX; 25.2 µM (inactive) in the assay with U-251; 24.5 µM (inactive) in the assay on HOP-92. In addition, the GI50 in the assay with UACC-62 is 24.7 µM (inactive); in the assay on OVCAR-5 it was 30.3 µM (inactive); with HCT-116, 15.7 µM (inactive); in the assay with HCC 2998 it was 45.5 µM (inactive); in the assay on SNB-19, 7.05 µM (inactive); with CAKI-1, 37.8 µM (inactive). Besides, the GI50 in the assay on NCI-H23 was 28.6 µM (inactive); in the assay on HL-60 it was 22.2 µM (inactive); in the assay on MOLT-4, 31.6 µM (inactive); in the assay on Malme-3M, 23 µM (inactive); in the assay with RXF 393, 24.1 µM (inactive).

As to `CCOC(=O)C1S/C(=N\c2ccc(Cl)c(Cl)c2)N=C1C` (stereo unspecified), the GI50 in the assay with OVCAR-8 was 35.4 µM (inactive); in the assay on HCT-15 it was 20.8 µM; in the assay on ACHN it was 29.5 µM (inactive); in the assay with EKVX, > 100 µM (inactive); with U-251, 48.3 µM (inactive); in the assay on UACC-62 it was 96.8 µM (inactive). Besides, the GI50 with OVCAR-5 is 44.1 µM (inactive); in the assay on HCC 2998 it was > 100 µM (inactive); in the assay on SNB-19 it was 45.6 µM (inactive); in the assay with CAKI-1, 35.1 µM (inactive); in the assay with NCI-H23, 36.7 µM (inactive); in the assay with HL-60, 20.4 µM (inactive). Also, the GI50 in the assay with MOLT-4 was 18.8 µM (inactive); with Malme-3M, 51.6 µM (inactive); with RXF 393, 13 µM (inactive).

For `COc1ccc(/C=C\c2cc(OC)c(OC(C)=O)c(OC)c2)cc1`, the GI50 in the assay with OVCAR-8 is 8.89 µM (inactive); in the assay with HCT-15 it was 5.12 µM; with SR, 13.3 µM (inactive); in the assay with ACHN, 27.9 µM (inactive); in the assay on EKVX, 15.6 µM (inactive); in the assay with U-251 it was 4.21 µM (inactive). Further, the GI50 in the assay on HOP-92 was 19.1 µM (inactive); in the assay on UACC-62, 8.15 µM (inactive); with OVCAR-5 it was 28.7 µM (inactive); with HCT-116, 8.53 µM (inactive); in the assay on HCC 2998, 10.7 µM (inactive); with SNB-19, 7.24 µM (inactive). Moreover, the GI50 was 25.1 µM (inactive) in the assay with CAKI-1, 13.3 µM (inactive) with NCI-H23, 6.43 µM (inactive) in the assay on MOLT-4 and 19 µM (inactive) in the assay on Malme-3M.

For `CCO/C=C\C12CCCC1NC(c1ccccc1)(c1ccccc1)O2` (stereo unspecified), the GI50 in the assay with OVCAR-8 was 39.2 µM (inactive); with ACHN it was 30.3 µM (inactive); with EKVX, 43.9 µM (inactive); with U-251 it was 33.3 µM (inactive); in the assay with HOP-92 it was 24 µM (inactive); in the assay on UACC-62, 21.7 µM (inactive). In addition, the GI50 in the assay on OVCAR-5 is 16.5 µM (inactive); in the assay with HCT-116, 30.7 µM (inactive); with SNB-19, 45.7 µM (inactive); in the assay with CAKI-1, 23.3 µM (inactive); in the assay on NCI-H23, 28.4 µM (inactive); with HL-60 it was 18.2 µM (inactive). Further, the GI50 in the assay with MOLT-4 is 19.2 µM (inactive); in the assay on Malme-3M, 25.9 µM (inactive); in the assay with RXF 393 it was 31 µM (inactive).

`O=C(c1ccccc1)C(c1ccccc1)C1(O)C(=O)Nc2c(Cl)ccc(Cl)c21` (stereo unspecified): the GI50 in the assay with OVCAR-8 was 19.4 µM (inactive); in the assay with HCT-15, 18.4 µM; in the assay with ACHN it was 16.9 µM (inactive); in the assay with EKVX, 18.2 µM (inactive); in the assay with U-251, 25.8 µM (inactive); in the assay on HOP-92 it was 19.6 µM (inactive). Moreover, the GI50 is 15.6 µM (inactive) with UACC-62; 20.4 µM (inactive) in the assay on OVCAR-5; 16.3 µM (inactive) in the assay with HCT-116; 30.8 µM (inactive) in the assay with HCC 2998; 30.3 µM (inactive) with SNB-19; 20.5 µM (inactive) in the assay on CAKI-1. In addition, the GI50 was 16.3 µM (inactive) with NCI-H23; 15.6 µM (inactive) with HL-60; 15.9 µM (inactive) in the assay on MOLT-4; 17.4 µM (inactive) in the assay on Malme-3M; 19.5 µM (inactive) in the assay with RXF 393.

With `C=C(C)C1CCC2(C)CC1c1c(c(C)cc3c1[nH]c1ccccc13)O2` (stereo unspecified), the GI50 was > 25 µM (inactive) in the assay on OVCAR-8; above 25 µM in the assay on HCT-15; > 25 µM (inactive) with SR; > 25 µM (inactive) with ACHN; > 25 µM (inactive) with U-251; > 25 µM (inactive) in the assay with HOP-92. Also, the GI50 with UACC-62 was > 25 µM (inactive); with OVCAR-5, > 25 µM (inactive); in the assay on HCT-116, > 25 µM (inactive); with HCC 2998, > 25 µM (inactive); in the assay with SNB-19, > 25 µM (inactive); with HL-60, 11.9 µM (inactive). Also, the GI50 in the assay with MOLT-4 is 17.5 µM (inactive); in the assay with Malme-3M, > 25 µM (inactive).

As for `Brc1ccc2c(c1)C1(c3cc(Br)ccc3-2)c2cc(Br)ccc2-c2ccc(Br)cc21`, the GI50 with OVCAR-8 was > 100 µM (inactive); in the assay with HCT-15 it was above 100 µM; with SR, > 100 µM (inactive); in the assay with ACHN it was > 100 µM (inactive); in the assay with EKVX, > 100 µM (inactive); in the assay with U-251, > 100 µM (inactive). The GI50 in the assay with UACC-62, in the assay with OVCAR-5, with HCT-116, in the assay on HCC 2998, in the assay with SNB-19 and in the assay on CAKI-1 was > 100 µM (inactive) each time. The GI50 in the assay on NCI-H23, with HL-60, in the assay with MOLT-4, in the assay with Malme-3M and with RXF 393 was > 100 µM (inactive) each time.

Take `O=C(O)CCSC(=O)Nc1cccc2ccccc12`: the GI50 in the assay with OVCAR-8 was > 100 µM (inactive); with HCT-15, above 100 µM; with SR, > 100 µM (inactive); in the assay with ACHN, > 100 µM (inactive); with EKVX, > 100 µM (inactive); in the assay with U-251, > 100 µM (inactive). Further, the GI50 with HOP-92, in the assay with UACC-62, in the assay with OVCAR-5, in the assay with HCT-116, with HCC 2998 and with SNB-19 was > 100 µM (inactive) each time. The GI50 in the assay on CAKI-1, with NCI-H23, with MOLT-4, with Malme-3M and with RXF 393 was > 100 µM (inactive) in each case.

Regarding `Cc1cn(C2CC(n3cncn3)C(C(C)O)O2)c(=O)[nH]c1=O` (stereo unspecified), the GI50 in the assay with OVCAR-8 is > 100 µM (inactive); with HCT-15, above 100 µM; with ACHN, > 100 µM (inactive); with EKVX, > 100 µM (inactive); in the assay with U-251 it was > 100 µM (inactive); in the assay on HOP-92, > 100 µM (inactive). Besides, the GI50 with UACC-62, in the assay on OVCAR-5, in the assay on HCT-116, in the assay on HCC 2998, with SNB-19 and in the assay with NCI-H23 was > 100 µM (inactive) each time. Further, the GI50 in the assay on HL-60, with MOLT-4, in the assay on Malme-3M and in the assay with RXF 393 was > 100 µM (inactive) throughout.

With `Nc1ccc(C(=O)N/C(=C\c2cccc([N+](=O)[O-])c2)c2nc3c4c(ccc3[nH]2)C(=O)c2ccccc2C4=O)cc1`, the GI50 in the assay with OVCAR-8 is 25 µM (inactive); in the assay on HCT-15 it was 70.5 µM; in the assay on EKVX, 42.6 µM (inactive); in the assay on U-251 it was 14 µM (inactive); in the assay on HOP-92, 29.4 µM (inactive); with UACC-62, 53.3 µM (inactive). The GI50 in the assay with OVCAR-5 is > 100 µM (inactive); with HCT-116, 22 µM (inactive); with HCC 2998 it was > 100 µM (inactive); in the assay with SNB-19, 13.6 µM (inactive); with CAKI-1 it was 8.69 µM (inactive); in the assay with NCI-H23, 10.8 µM (inactive). Further, the GI50 in the assay with MOLT-4 was 3.94 µM (inactive); with Malme-3M it was > 100 µM (inactive); in the assay on RXF 393 it was 10.1 µM (inactive).
